Test results from US6632643B2, “Use of α-1,4-glucan lyase for preparation of 1,5-D-hydrofructose” (Danisco A/S, priority 1993, dated 2003).
Marks after values point to notes of the source that are not given here.

Columns and labels:
lyase from M. costata = test: Relative degrading rates of the lyase from M. costata towards various substrates; format: biochemical, Morchella costata; conditions: for activity (maltotetraose as 100%): purified fungal lyase, section B.1.4.3
lyase from M. vulgaris = test: Relative degrading rates of the lyase from M. vulgaris towards various substrates; format: biochemical, Morchella vulgaris; conditions: all substrates 10 mg ml^−1
Method: The activity observed for maltotetraose is treated as 100%. The final concentration of all substrates was 10 mg ml^−1.

[1] = system: α-1,4-glucan lyase from the parasite-free red seaweed Gracilariopsis lemaneiformis; test: Degradation rates of the Californian algal lyase on various substrates; format: biochemical; conditions: for AF released: substrate 10 mg/ml, pH 3.8, 40 min at 45° C.
Method: Reaction conditions: The reaction mixture contained 10 mM of HOAc-NaOAc (pH 3.8). The substrate concentration was 10 mg/ml. The final volume was 100 ul after the addition of lyase and water. The reaction time was 40 min at 45° C.

α-1,4-glucan lyase = test: Activity of the lyase towards maltosaccharides (summary); format: biochemical
[2] = system: lyase from the fungal infected algae; test: Effect of reaction media on production of AF by the lyase; format: biochemical, fungal infected Gracilariopsis lemaneiformis; conditions: NaCl 0.85% (0.145 M) in the reaction mixture
Description: The production of AF using either pure water or 0.85% NaCl as reaction medium decreased the yield.

[3] = system: lyase from the fungal infected red algae; test: Inhibition, activation and stabilisation of the lyase from fungal infected algae; format: biochemical, fungal infected Gracilariopsis lemaneiformis
Method: […] The reaction was carried out at 30° C. for 30 min and stopped by the addition of 3,5-dinitrosalicylic acid reagent. Optical density at 550 nm was measured after standing at room temperature for 10 min.

M. costata lyase = test: Reversible and irreversible inhibitors of the fungal lyase (M. costata); format: biochemical, Morchella costata
Method: The reaction was carried out at 30 ° C. for 30 min and stopped by the addition of 3,5-dinitrosalicylic acid reagent. Optical density at 550 nm was measured after standing at room temperature for 10 min.
Under the same assay conditions and in the presence of 2 mM PCMB, the activity decreased by 60% for the M. costata lyase and 98% for the lyase from the fungal infected red algae. This means that the fungal lyase was much less sensitive to heavy metal inhibition.

[4] = system: α-1,4-glucan lyase from the parasite-free red seaweed Gracilariopsis lemaneiformis; test: PCMB inhibition of the lyase from Californian alga; format: biochemical; conditions: final concentration 2 mM
Method: 7. At a final concentration of 2 mM, p-chloromercuribenzoic acid (PCMB) inhibited the lyase activity by 96%, indicating the —SH group(s) is essential for the enzymatic activity.

[5] = system: lyase from the fungal infected Gracilariopsis lemaneiformis; test: Reaction rates with glycogen and amylopectin, lyase from fungal infected Gracilariopsis lemaneiformis; format: biochemical

Row | Molecule | activity (maltotetraose as 100%) (lyase from M. costata) [%] | relative degrading rate (maltotetraose = 100%) (lyase from M. costata; substrate 2 mg/ml) [%] | relative degrading rate (maltotetraose = 100%) (lyase from M. costata; substrate 4 mg/ml) [%] | relative degrading rate (maltotetraose = 100%) (lyase from M. costata; substrate 10 mg/ml) [%] | Activity (%) (maltotetraose = 100%) (lyase from M. vulgaris) | AF released [1] [nmol] | lyase activity towards maltosaccharide (α-1,4-glucan lyase) | further results
1 | OC[C@H]1O[C@H](O[C@H]2[C@H](O)[C@@H](O)[C@@H](O[C@H]3[C@H](O)[C@@H](O)[C@@H](O[C@H]4[C@H](O)[C@@H](O)C(O)O[C@@H]4CO)O[C@@H]3CO)O[C@@H]2CO)[C@H](O)[C@@H](O)[C@@H]1O (stereo partly shown) [Maltotetraose, maltotetraose] | 100 | 100 | 100 | 100 | 100.0 | 670 | highest activity | 
2 | OCC1OC(OC2C(CO)OC(OC3C(CO)OC(O)C(O)C3O)C(O)C2O)C(O)C(O)C1O (stereo not shown) [Maltotriose, maltotriose] | 56 | 40.6 | 58.6 | 56.0 | 49.8 | 654 | lower activity | 
3 | [Cl-].[Na+] [NaCl] |  |  |  |  |  |  |  | increase of AF yield [2]: up to 1 -fold
4 | O=C(O)c1cc[c]([Hg][Cl])cc1 [PCMB, p-chloromercuribenzoic acid] |  |  |  |  |  |  |  | activity decreased by ([3]; 2 mM PCMB): 98%; activity decreased by (M. costata lyase; 2 mM PCMB): 60%; inhibition of lyase activity [4]: 96%
5 | OC[C@H]1NC[C@H](O)[C@@H](O)[C@@H]1O [deoxyjirimycin] |  |  |  |  |  |  |  | activity decreased to (remaining activity) ([3]; 25 μM, amylopectin 2%): 10.4%; lyase activity ([3]; 100 μM, amylopectin 2%): completely lost; activity decreased to (remaining activity) (M. costata lyase; 25 μM, amylopectin 2%): 10.4%; lyase activity (M. costata lyase; 100 μM, amylopectin 2%): completely lost
6 | Amylopectin |  |  |  | 106.5 | 139.9 | 732 |  | stabilizing effect on the lyase ([3]; soluble and immobilized enzyme system): stabilizing effect; degradation by the fungal lyase (lyase from M. costata): also degraded; substrate concentration at which half of the maximal velocity rate was reached [1]: 3.76 mg/mL; relative reaction rates ([5]; 25 C.): 0.818^a; relative reaction rates ([5]; 30 C.): 1.133^a; relative reaction rates ([5]; 45 C.): 1.17^a
